Assay results: ChEMBL document CHEMBL1201862, “PubChem BioAssay data set” (2004)
Calls of active or inactive are those of the source.

Columns and labels:
[1] = target: T1, Short transient receptor potential channel 4 (Mus musculus, UniProt Q9QUQ5); assay: calcium entry via TRPC4 opening agents – cell-based, HEK293 TRPC4/mu-opioid, Fluo-4 calcium, dose response (AID 434937); type: functional
T1 sequence (Q9QUQ5 whole entry): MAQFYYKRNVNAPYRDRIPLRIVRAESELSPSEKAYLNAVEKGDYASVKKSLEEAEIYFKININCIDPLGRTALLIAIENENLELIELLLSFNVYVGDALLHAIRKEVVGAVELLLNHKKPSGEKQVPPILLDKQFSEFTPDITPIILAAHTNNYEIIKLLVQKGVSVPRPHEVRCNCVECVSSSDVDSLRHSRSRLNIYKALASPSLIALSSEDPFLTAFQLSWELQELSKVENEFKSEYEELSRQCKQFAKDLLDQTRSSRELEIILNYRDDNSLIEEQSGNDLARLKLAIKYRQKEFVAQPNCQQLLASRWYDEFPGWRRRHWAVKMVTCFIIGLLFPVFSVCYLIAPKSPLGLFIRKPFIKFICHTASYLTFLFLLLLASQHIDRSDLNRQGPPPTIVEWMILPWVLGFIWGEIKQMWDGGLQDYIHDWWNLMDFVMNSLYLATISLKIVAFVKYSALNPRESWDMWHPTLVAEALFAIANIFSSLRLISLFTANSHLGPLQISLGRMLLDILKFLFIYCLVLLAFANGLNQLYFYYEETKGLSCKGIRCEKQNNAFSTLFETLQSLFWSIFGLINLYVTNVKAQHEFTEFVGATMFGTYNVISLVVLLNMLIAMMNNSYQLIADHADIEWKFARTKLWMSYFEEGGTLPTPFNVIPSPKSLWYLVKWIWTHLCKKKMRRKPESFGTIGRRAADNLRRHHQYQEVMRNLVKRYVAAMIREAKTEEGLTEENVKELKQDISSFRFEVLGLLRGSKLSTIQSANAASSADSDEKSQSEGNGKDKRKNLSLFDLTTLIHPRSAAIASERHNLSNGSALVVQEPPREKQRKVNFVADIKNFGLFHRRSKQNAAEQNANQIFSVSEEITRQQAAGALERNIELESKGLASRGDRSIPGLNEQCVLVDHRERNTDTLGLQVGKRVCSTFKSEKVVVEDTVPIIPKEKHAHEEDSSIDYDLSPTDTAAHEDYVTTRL

Cytochrome P450 3A4 = Cytochrome P450 3A4 (Homo sapiens, UniProt P08684); settings: Potency;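 further: confirmatory qHTS run detecting inhibitors and substrates of CYP3A4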
[2] = target: T2, Ubiquitin-conjugating enzyme E2 N (Homo sapiens, UniProt P61088); type: functional;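 further: Dose-response confirmation in a TR-FRET assay detecting UBC13-driven polyubiquitin chain formation, inhibition measured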
T2 sequence (P61088 whole entry): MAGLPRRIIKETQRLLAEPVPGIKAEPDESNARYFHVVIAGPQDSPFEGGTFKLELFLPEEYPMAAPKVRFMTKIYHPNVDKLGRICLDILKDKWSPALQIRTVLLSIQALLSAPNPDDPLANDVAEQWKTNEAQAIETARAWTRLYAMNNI

[3] = Luminescence Cell-Based Dose Confirmation HTS to Identify Activators of 5'UTR Stem-Loop Driven Alpha-Synuclein mRNA Translation in H4 Neuroglioblastoma Cells. [Related pubchem assays: 1829 (Project Summary), 1814 (Primary HTS)]; type: functional
[4] = Luminescence Cell-Based Dose Response HTS to Identify Activators of Luciferase Translation or Activity in H4 […] Cells. [Related pubchem assays: 1829 (Project Summary), 1814 (Primary HTS)]; type: functional
H4 = assay: Luminescence Cell-Based Dose Response HTS to Identify Activators of 5'UTR Stem-Loop Driven Prion Protein mRNA Translation in H4 Neuroglioblastoma Cells. [Related pubchem assays: 1829 (Project Summary), 1814 (Primary HTS)]; type: functional; settings: Homo sapiens
[5] = target: T3, Calpain-2 catalytic subunit (Sus scrofa, UniProt P43367); assay: m-calpain protease blockers, concentration series – biochemical, fluorogenic peptide substrate, dose response (AID 1420); type: functional
T3 sequence (P43367 whole entry): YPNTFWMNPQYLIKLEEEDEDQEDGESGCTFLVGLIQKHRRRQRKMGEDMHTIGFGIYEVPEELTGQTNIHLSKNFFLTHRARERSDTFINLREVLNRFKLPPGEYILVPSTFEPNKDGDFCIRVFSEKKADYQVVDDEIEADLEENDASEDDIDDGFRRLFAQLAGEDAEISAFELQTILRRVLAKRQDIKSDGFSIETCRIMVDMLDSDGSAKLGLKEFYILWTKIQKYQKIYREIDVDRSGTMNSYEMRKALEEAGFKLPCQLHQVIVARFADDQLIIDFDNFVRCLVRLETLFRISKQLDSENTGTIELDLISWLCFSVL

Fatty acid synthase [6] = target: T4, Fatty acid synthase (Homo sapiens, UniProt P49327); assay: inhibition of human FAS-TE enzyme activity – biochemical, endpoint fluorescence intensity, uHTS hits, dose response (AID 624327); type: functional;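 further: fluorescence from hydrolysis of an O-methyl fluorescein acyl ester substrate by the enzyme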
Fatty acid synthase [7] = target: T4, Fatty acid synthase; assay: inhibition of human FAS-TE enzyme activity – biochemical, kinetic fluorescence intensity, dose response (AID 624326); type: functional;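 further: rate of fluorescence rise from hydrolysis of a fluorogenic O-methyl fluorescein ester substrate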
Paired box protein Pax-8 = Paired box protein Pax-8 (Homo sapiens, UniProt Q06710); assay: PAX8 transcriptional activity inhibition in RMG-I – RMG-I cells, luciferase, cherry-pick, dose response (AID 687027); type: functional, cell-based;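 further: luciferase reporter driven by Pax8 target thyroperoxidase promoter measured by SteadyGlo luminescence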
Paired box protein Pax-8, sequence (Q06710 whole entry): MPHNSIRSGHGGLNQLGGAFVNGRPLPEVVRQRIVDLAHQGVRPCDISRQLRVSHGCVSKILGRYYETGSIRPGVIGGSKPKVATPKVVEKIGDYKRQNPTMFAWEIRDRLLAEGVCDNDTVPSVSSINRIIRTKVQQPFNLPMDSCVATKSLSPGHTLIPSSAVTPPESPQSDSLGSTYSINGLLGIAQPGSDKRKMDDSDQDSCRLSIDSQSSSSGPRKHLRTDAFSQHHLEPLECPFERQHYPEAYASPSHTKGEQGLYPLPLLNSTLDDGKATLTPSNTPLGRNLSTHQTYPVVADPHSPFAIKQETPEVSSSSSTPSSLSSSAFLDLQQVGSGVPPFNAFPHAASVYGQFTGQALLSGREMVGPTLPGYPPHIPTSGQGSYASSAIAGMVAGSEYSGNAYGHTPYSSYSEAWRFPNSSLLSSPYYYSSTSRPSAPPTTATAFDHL

Cytochrome P450 3A4, sequence (P08684 whole entry): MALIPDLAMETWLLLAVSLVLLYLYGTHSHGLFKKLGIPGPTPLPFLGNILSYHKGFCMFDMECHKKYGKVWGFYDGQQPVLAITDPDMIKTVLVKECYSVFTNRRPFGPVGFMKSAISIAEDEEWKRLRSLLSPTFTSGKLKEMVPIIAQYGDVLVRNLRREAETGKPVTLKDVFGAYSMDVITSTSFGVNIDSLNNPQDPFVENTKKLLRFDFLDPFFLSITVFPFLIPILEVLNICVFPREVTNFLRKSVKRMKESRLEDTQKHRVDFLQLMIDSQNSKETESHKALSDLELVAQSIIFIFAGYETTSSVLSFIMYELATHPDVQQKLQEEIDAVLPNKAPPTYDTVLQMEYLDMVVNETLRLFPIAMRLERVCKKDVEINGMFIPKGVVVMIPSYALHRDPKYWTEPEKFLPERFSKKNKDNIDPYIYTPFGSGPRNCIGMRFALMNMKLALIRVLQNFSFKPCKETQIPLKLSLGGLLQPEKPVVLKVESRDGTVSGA
T4 sequence (P49327 whole entry): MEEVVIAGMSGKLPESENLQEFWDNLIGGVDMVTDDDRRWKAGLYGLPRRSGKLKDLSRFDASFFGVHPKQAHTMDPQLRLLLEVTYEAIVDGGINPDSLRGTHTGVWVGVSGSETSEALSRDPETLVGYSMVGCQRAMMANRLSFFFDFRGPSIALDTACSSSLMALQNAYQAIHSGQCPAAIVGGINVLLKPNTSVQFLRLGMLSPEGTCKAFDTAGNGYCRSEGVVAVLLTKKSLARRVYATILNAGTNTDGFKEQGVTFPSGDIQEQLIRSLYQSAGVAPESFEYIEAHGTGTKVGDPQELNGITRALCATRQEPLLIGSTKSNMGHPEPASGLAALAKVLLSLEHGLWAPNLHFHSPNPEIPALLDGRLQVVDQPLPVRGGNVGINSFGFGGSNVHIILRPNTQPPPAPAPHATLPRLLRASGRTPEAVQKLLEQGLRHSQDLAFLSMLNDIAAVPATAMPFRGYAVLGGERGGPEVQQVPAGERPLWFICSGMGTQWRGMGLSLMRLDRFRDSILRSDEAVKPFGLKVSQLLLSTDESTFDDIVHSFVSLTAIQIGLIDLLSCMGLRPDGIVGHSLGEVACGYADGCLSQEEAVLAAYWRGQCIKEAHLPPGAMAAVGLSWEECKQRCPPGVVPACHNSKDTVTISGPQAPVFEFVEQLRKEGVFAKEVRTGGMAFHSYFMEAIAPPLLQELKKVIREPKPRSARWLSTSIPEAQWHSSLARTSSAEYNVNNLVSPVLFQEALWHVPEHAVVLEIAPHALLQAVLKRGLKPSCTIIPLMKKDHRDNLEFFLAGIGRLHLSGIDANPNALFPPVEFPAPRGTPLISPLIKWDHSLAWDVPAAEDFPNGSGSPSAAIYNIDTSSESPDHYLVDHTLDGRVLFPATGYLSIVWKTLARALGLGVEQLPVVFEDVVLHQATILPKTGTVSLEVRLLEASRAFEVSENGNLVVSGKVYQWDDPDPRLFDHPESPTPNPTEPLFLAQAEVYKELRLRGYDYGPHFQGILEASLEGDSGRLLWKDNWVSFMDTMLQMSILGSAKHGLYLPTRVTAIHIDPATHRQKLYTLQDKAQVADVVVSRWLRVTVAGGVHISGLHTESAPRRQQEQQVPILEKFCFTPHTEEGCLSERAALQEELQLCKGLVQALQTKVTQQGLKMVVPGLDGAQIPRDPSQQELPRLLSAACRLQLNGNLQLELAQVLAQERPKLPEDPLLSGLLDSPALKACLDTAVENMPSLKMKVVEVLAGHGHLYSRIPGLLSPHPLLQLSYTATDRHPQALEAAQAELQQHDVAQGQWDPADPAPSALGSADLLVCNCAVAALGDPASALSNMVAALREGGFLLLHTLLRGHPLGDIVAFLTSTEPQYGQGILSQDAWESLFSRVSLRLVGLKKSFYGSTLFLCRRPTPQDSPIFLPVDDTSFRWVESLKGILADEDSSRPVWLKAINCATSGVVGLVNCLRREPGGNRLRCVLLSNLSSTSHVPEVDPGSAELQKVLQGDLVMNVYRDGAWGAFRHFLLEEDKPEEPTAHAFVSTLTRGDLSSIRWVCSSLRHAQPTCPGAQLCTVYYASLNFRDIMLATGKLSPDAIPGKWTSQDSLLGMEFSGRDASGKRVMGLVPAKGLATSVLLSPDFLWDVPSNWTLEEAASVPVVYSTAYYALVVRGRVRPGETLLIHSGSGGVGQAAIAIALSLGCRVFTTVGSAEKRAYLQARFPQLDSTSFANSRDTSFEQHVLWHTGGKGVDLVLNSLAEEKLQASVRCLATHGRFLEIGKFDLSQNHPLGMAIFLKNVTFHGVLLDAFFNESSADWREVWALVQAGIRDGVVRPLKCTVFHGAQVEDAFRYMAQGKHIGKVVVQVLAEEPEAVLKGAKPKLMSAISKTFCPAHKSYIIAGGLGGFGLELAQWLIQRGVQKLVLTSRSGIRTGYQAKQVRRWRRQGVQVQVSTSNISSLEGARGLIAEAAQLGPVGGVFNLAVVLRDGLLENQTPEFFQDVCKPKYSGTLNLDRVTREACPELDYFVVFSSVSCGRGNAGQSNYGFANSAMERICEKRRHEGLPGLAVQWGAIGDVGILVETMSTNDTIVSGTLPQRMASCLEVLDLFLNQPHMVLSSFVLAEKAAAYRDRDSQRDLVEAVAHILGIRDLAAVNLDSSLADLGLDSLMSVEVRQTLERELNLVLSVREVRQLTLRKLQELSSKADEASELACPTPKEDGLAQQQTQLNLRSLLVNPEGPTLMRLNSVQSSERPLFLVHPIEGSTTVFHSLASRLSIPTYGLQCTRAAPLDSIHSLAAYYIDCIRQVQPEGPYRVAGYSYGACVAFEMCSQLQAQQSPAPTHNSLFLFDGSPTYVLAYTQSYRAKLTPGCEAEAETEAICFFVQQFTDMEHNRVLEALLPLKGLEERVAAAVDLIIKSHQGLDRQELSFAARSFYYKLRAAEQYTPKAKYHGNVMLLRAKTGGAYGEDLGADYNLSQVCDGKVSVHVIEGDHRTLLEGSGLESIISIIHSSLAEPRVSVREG

CN(C)C(CNc1ncnc2sc3c(c12)CCCC3)c1ccco1 (configuration not stated)
EC50 [1]: 3.35 µM (active)

CCCCN(CC)CCNC(=O)c1cc2cc3ccc(Cl)cc3nc2o1
EC50 [1]: 0.596 µM (active)

CC(=O)N1[C@H](C)C=C[C@]1(Cc1ccccc1)C(=O)O
AC50 (Cytochrome P450 3A4): 31.6 µM (inconclusive)

NC(=O)c1c(NC(=O)C(=O)NCCCN2CCOCC2)sc2c1CCCC2
IC50 [2]: > 20 µM (inactive)

COC(=O)N1CC=CC1(C)C(=O)NCc1ccc(C)o1 (configuration not stated)
AC50 (Cytochrome P450 3A4): 15.8 µM (inconclusive)

Cn1c(=O)c2c(nc(SCCN3CCOCC3)n2Cc2ccc(F)cc2)n(C)c1=O
EC50 [3]: 0.262 µM (active)
EC50 [4]: 5.27 µM (active)
EC50 (H4): > 120 µM (not active)

COc1cccc(NC(=O)c2nnn(CCc3ccccc3)c2N)c1
EC50 [3]: 6.28 µM (active)
EC50 [4]: 6.24 µM (active)
EC50 (H4): 4.53 µM (active)

C=CCn1c(=O)c(C(=O)Nc2ccccc2S(N)(=O)=O)c(O)c2ccccc21
IC50 [2]: > 20 µM (inactive)

CNCCc1n[nH]c(N)n1
EC50 [1]: 0.0667 µM (active)

COC(=O)[C@]1(C)CC[C@@]2(C)CC[C@@]3(C)C4=CC=C5C(=CC(=O)C(O)=C5C)[C@@]4(C)CC[C@@]3(C)C2C1 (some centres not stated)
AC50 (Cytochrome P450 3A4): 31.6 µM (inconclusive)

COc1ccc(C(CNC(=O)c2ccccc2SC)N(C)C)cc1 (configuration not stated)
EC50 [1]: 0.473 µM (active)

CCCN(CCC)C(=O)CC(c1ccccc1)c1ccc(C)cc1O (configuration not stated)
IC50 [5]: > 50 µM (not active)

COc1ccccc1N1CC(C(=O)Nc2cc(C(F)(F)F)ccc2N2CCCC2)CC1=O (configuration not stated)
IC50 (Fatty acid synthase [6]): 6.81 µM (active)
IC50 (Fatty acid synthase [7]): 7.17 µM (active)

Nc1ccc2c(c1)C(=O)Cc1ccccc1S2
IC50 [2]: > 20 µM (inactive)

C=CCSSCC=C
AC50 (Cytochrome P450 3A4): 25.1 µM (inconclusive)

CSCCC(NC(=O)c1ccc(Cl)cc1Cl)C(=O)NNC(=O)c1csc(N2CCOCC2)n1 (configuration not stated)
IC50 [2]: > 20 µM (inactive)

CSCCC(c1nnnn1Cc1ccccc1)N1CCC(n2c(O)nc3ccccc32)CC1 (configuration not stated)
AC50 (Paired box protein Pax-8): 0.538 µM (active)

Oc1ccc2c(c1)OC(c1ccc(O)c(O)c1)C(O)C2 (configuration not stated)
AC50 (Cytochrome P450 3A4): 25.1 µM (inconclusive)

O=C(COc1ccc(Br)cc1CNC1CCCC1)Nc1ccccc1
EC50 [1]: 5.96 µM (active)

O=C1c2sc3nc4ccccc4n3c2C(=O)N1c1ccccc1Cl
EC50 [3]: > 120 µM (not active)
EC50 [4]: 13.8 µM (active)
EC50 (H4): > 120 µM (not active)
